# Measured values reported in PubChem BioAssay AID1996.
# Conditions: buffer; pH 7.4; 200.0 µM
row,SMILES,solubility kinetic
1,COCc1cc(=O)[nH]c(SCC(=O)N2CCOCC2)n1,> 44.9 µg/mL
2,Cc1ccc2c(c1)=C/C(=C\c1c(O)[nH]c(=O)[nH]c1=O)C(=O)N=2,< 0.2 µg/mL
3,O=C(O)CSc1nc2ccccc2s1,> 33.8 µg/mL
4,O=S(=O)(NC1CN2CCC1CC2)c1ccc(Cl)cc1 (stereo not drawn),42.6 µg/mL
5,O=[N+]([O-])c1cccnc1NCCc1c[nH]c2ccccc12,0.3 µg/mL
6,CS(=O)(=O)O.OC(CCN1CCCCC1)(c1ccccc1)c1ccccc1,> 58.7 µg/mL
7,C=CCc1c(C)nc(SCc2ccccc2)[nH]c1=O,10.4 µg/mL
8,Cc1cccc(NCc2ccc(O)c3ncccc23)c1C,> 41.8 µg/mL
9,CN(C(=O)c1ccc2c(c1)CCO2)C(C)(C)C,23.9 µg/mL
10,CC(=O)c1c(C)[nH]c(C(=O)Nc2cccc3ccccc23)c1C,5.9 µg/mL
11,O=[N+]([O-])c1cc([N+](=O)[O-])c2cc3ccccc3nc2c1,0.2 µg/mL
12,O=S(=O)(c1ccc(Cl)cc1)N1CCN(CCc2ccncc2)CC1,18.3 µg/mL
13,O=S(=O)(NC1Cc2ccccc2C1)c1ccccc1,> 41 µg/mL
14,Cc1noc(C)c1C(=O)OCC(=O)N(C)C1(C#N)CCCCC1,> 47.9 µg/mL
15,O=C(COc1ccc(Cl)cc1)NC1CC1,> 33.9 µg/mL
16,COc1ccc(Nc2nc(-c3cccnc3)cs2)c(OC)c1,26.3 µg/mL
17,COc1ccccc1/C=C/C(=O)NC1CC2CCC1C2 (stereo not drawn),2 µg/mL
18,CC1CCCC(NC(=O)COc2ncnc3ccccc23)C1C (stereo not drawn),44.6 µg/mL
19,CCc1ccc2nc(N(CCN(C)C)C(=O)/C=C/c3cccs3)sc2c1.Cl,< 0.3 µg/mL
20,O=C(Oc1c(-c2ccccc2)c(=O)n2c3c(cccc13)CC2)c1ccc(F)cc1,< 0.8 µg/mL
21,O=C1CC(c2ccccc2)=Nc2ccc(Br)cc2N1,0.9 µg/mL
22,COC(=O)c1cccc(NC(=O)CCc2c(C)noc2C)c1,> 45.3 µg/mL
23,Cn1ncc([N+](=O)[O-])c1C(=O)N1CCCCCC1,> 37.8 µg/mL
24,CN1CCN(C(=O)c2ccc(F)c(F)c2)CC1,> 36 µg/mL

row,SMILES,solubility kinetic
1,CCC1(OC(=O)c2ccccc2)CC(C)N(C)CC1C.Cl (stereo not drawn),30.3 µg/mL
2,O=C(CNCc1ccco1)Nc1cc(S(=O)(=O)N2CCOCC2)ccc1N1CCOCC1,> 69.7 µg/mL
3,COc1cc(C(=O)c2ccccc2)c([N+](=O)[O-])cc1OC,> 43.1 µg/mL
4,Clc1ncccc1OCc1ccccc1,14.6 µg/mL
5,CCOC(=O)C1CCN(S(=O)(=O)c2cn(C)c(C)n2)CC1,> 47.3 µg/mL
6,COc1cccc([C@@]2(O)CCCC[C@@H]2CN(C)C)c1,> 39.5 µg/mL
7,Cc1cc(C)c(NC(=O)CCCSc2nnc(N)s2)c(C)c1,> 50.5 µg/mL
8,Cc1cccc(C(=O)NC2CC3CCCC(C2)N3Cc2ccccc2)c1 (stereo not drawn),11.1 µg/mL
9,COc1ccc(NC(=O)CC(NC(C)c2ccccc2)C(=O)O)cc1 (stereo not drawn),44.2 µg/mL
10,Cc1ccc(N2CC(=O)N(CC(=O)O)C2=O)cc1,> 37.2 µg/mL
11,C=CCn1c(O)c(C(CC)=Nc2ccc(N(C)C)cc2)c(=O)[nH]c1=O,1.5 µg/mL
12,O=C(Cc1ncc(C(F)(F)F)cc1Cl)NCc1cccnc1,> 49.5 µg/mL
13,CSc1nccc(NC(=O)c2cccc(Br)c2)n1,2.5 µg/mL
14,Cc1cccc(S(=O)(=O)Nc2ccc3c(c2)OCCO3)c1,28.7 µg/mL
15,CCN(CC)C(=O)c1ccc(NC(=O)COc2ccccc2F)cc1,> 51.7 µg/mL
16,Nc1ncc(CCN2CCOCC2)c(-c2ccc(F)cc2)n1,> 45.4 µg/mL
17,Cc1ccc(C(=O)NCc2ccc3c(c2)OCO3)cc1Cl,< 0.7 µg/mL
18,O=C(Nc1ccc(Br)cc1)C1Cc2ccccc2O/C1=N\O (stereo not drawn),< 0.4 µg/mL
19,NS(=O)(=O)c1cccc(NC(=O)Nc2ccccc2)c1,> 43.7 µg/mL
20,Nc1ccc2c(c1)COC2=O,22.2 µg/mL
21,S=c1[nH]ccn1-c1cccc(Cl)c1Cl,> 36.8 µg/mL
22,CC(N)C(=O)OC(C)(C)Cc1ccc(Cl)cc1.Cl (stereo not drawn),> 43.8 µg/mL
23,Cc1noc2ncnc(Oc3cc(Cl)ccc3Cl)c12,< 0.2 µg/mL
24,CSc1ncc(C(=O)Nc2ccc(Br)cn2)c(C)n1,47 µg/mL

row,SMILES,solubility kinetic
1,CN(C(=O)CSc1nncn1-c1ccccc1)c1ccccc1,> 48.7 µg/mL
2,CC(=O)NCCc1ccc(C(=O)COC(=O)C2CCCCC2)cc1,33.4 µg/mL
3,CSc1ccccc1C(=O)C1CCCN(C(=O)NC(C)C)C1 (stereo not drawn),42.1 µg/mL
4,Cc1ccc(CCN2CC(C(=O)NC(C)C)CC2=O)cc1 (stereo not drawn),> 43.3 µg/mL
5,COc1ccc(C(C)(C)C)cc1NC(=O)CCN1C(=O)NC(C)(C)C1=O,52.7 µg/mL
6,CCCc1nnc(NC(=O)C2CC(=O)N(CCc3ccc(F)cc3)C2)s1 (stereo not drawn),> 56.5 µg/mL
7,NC(=O)C1CCCCc2c1[nH]c1ccc(Cl)cc21 (stereo not drawn),> 39.4 µg/mL
8,O=c1ccnc2n1COCS2,> 25.5 µg/mL
9,Cc1ccc(S(=O)(=O)NC2CCCCCC2)cc1C(N)=O,> 46.6 µg/mL
10,O=C(Nc1ccc2c(c1)OCO2)Nc1ccc(F)cc1F,0.9 µg/mL
11,CCOC(=O)C(=CNc1ccc2c(c1)CCN2C(C)=O)C(=O)OCC,9.9 µg/mL
12,O=C(NCCc1ccc(Cl)cc1)c1ccc2nc[nH]c2c1,> 45 µg/mL
13,COc1cc(C(=O)Nc2ccc(C(=O)c3cccs3)cc2)cc(OC)c1OC,8.2 µg/mL
14,CC(=O)Nc1ccc(N2CCN(c3ccc(F)cc3)CC2)cc1,0.7 µg/mL
15,O=C(CN1CCCCC1)N1CCc2ccccc21,36.6 µg/mL
16,Cc1ccc(-n2nc3c(c2NC(=O)C(C)(C)C)CS(=O)(=O)C3)cc1,> 52.1 µg/mL
17,CN(C(=O)COC(=O)c1ccc(Cl)c(S(=O)(=O)N2CCCCCC2)c1)C1CCS(=O)(=O)C1 (stereo not drawn),> 76.1 µg/mL
18,COc1cc(OC)c(C(=O)OC(C)C(=O)NCc2ccc3c(c2)OCO3)cc1OC (stereo not drawn),> 62.6 µg/mL
19,Cc1cc(C)cc(NC(=S)N(C)C)c1,30.7 µg/mL
20,O=C(NCC1CCCO1)C1CC(=O)N(c2ccc(Cl)cc2)C1 (stereo not drawn),> 48.4 µg/mL
21,Cc1ccc(S(=O)(=O)N2CC(O)CC2C(=O)OCC(=O)Nc2ccc([N+](=O)[O-])cc2C(F)(F)F)cc1C (stereo not drawn),76.5 µg/mL
22,COC(=O)c1ccc(N2CCN(C(=O)C3CC3)CC2)c([N+](=O)[O-])c1,> 50 µg/mL
23,Cc1ccc(NC(=O)CCCNC(=O)c2ccc(Cl)cc2)nc1,4.1 µg/mL
24,CSc1ccccc1NC(=O)C1CCCN(S(C)(=O)=O)C1 (stereo not drawn),> 49.3 µg/mL

row,SMILES,solubility kinetic
1,COc1ccc2[nH]c(C(=O)NCc3ccccc3)c(C)c2c1.Cl,2.7 µg/mL
2,NC(=O)c1ccc(SCC(=O)NC2CCCCC2)c([N+](=O)[O-])c1,14.7 µg/mL
3,c1ccc(COCC2CCNCC2)cc1,> 30.8 µg/mL
4,CC1CC(=O)Nc2ccccc2N1S(=O)(=O)c1ccc(F)cc1F (stereo not drawn),15.6 µg/mL
5,CN1CCN(CC(=O)NC(=O)NC2CCCCC2)CC1,> 42.4 µg/mL
6,CCCN(CCC)C(=O)Nc1ccc(F)cc1F,> 38.4 µg/mL
7,O=C(NCC(c1ccco1)N1CCc2ccccc21)c1cccc(F)c1 (stereo not drawn),16.3 µg/mL
8,COc1ccc(CCNC(=O)c2cnc(Cl)c(Cl)c2)cc1,2.4 µg/mL
9,COc1ccc(CCN(C)C(=O)c2ccc3c(=O)n4c(nc3c2)CCCCC4)cc1OC,> 65.3 µg/mL
10,NCCSc1c(-c2ccc(Cl)cc2)[nH]c2ccccc12,> 45.4 µg/mL
11,CCOc1ccc(NC(=O)C2CCN(S(C)(=O)=O)CC2)cc1,20.2 µg/mL
12,CCOC(=O)C1CCN(C(=O)C2COc3ccccc3O2)CC1 (stereo not drawn),32.3 µg/mL
13,CC(=O)C1=C(O)C(=O)N(c2ccc(O)cc2)C1c1ccccc1F (stereo not drawn),> 49.1 µg/mL
14,CSc1ncc(Cl)c(C(=O)Nc2c(C)cccc2C)n1,2.3 µg/mL
15,O=c1nc(SCc2c(F)cccc2Cl)nc(-c2ccccc2)[nH]1,4.1 µg/mL
16,CCC(=O)OCC(=O)Nc1cc([N+](=O)[O-])ccc1OC,40.9 µg/mL
17,O=c1nc(/C=C/c2ccc(Cl)cc2Cl)cc(C(F)(F)F)[nH]1,7.3 µg/mL
18,CC1(C)NC(=O)N(CC(=O)N2CCC(Cc3ccccc3)CC2)C1=O,50.1 µg/mL
19,Cn1c(=O)n(Cc2ccc(Br)cc2)c2ccccc21,25.7 µg/mL
20,Cc1ccc(C)c(NC(=O)C(C)N2C(=O)c3ccccc3C2=O)c1 (stereo not drawn),21 µg/mL
21,O=S(=O)(Nc1nc2ccccc2s1)c1ccc(Cl)nc1,> 48.9 µg/mL
22,Cc1cc(NC(=O)COc2ccc(F)c(Cl)c2)no1,4.8 µg/mL
23,CC(C)CC(=O)N1CCN(C(=O)c2ccc(F)cc2)CC1,> 43.9 µg/mL
24,Cc1nnc(SCC(=O)NC(=O)NC(C)C)s1,> 41.2 µg/mL

row,SMILES,solubility kinetic
1,Cc1ccc(S(=O)(=O)N2CCN(C3CC(=O)N(c4ccc(F)cc4)C3=O)CC2)cc1C (stereo not drawn),52.5 µg/mL
2,O=C1CC(=O)N(c2ccccc2F)C(=O)N1,> 33.3 µg/mL
3,CC1CN(C(=S)Nc2cccc(Cl)c2)CC(C)O1 (stereo not drawn),> 42.7 µg/mL
4,COC(=O)c1cc(COC(=O)c2nc3nc(C)cc(C)n3n2)oc1C,> 51.6 µg/mL
5,Cl.O=C(OCCN1CCOCC1)c1cccc(F)c1,> 43.5 µg/mL
6,NC(=O)c1cc(NC(=O)COC(=O)CCCN2C(=O)c3cccc4cccc(c34)C2=O)cc(C(N)=O)c1,4.9 µg/mL
7,COc1ccccc1NS(=O)(=O)c1ccc(OC)c([N+](=O)[O-])c1,> 50.8 µg/mL
8,Cc1cccc(C(=O)O/N=C(\N)CS(=O)(=O)c2ccccc2)c1,1.6 µg/mL
9,CC(C)OP(=O)(OC(C)C)C(NC(=O)c1ccccc1)C(N)=O (stereo not drawn),> 51.3 µg/mL
10,CC(=O)Oc1ccc2nc(/C=C/c3ccccc3)oc(=O)c2c1,0.9 µg/mL
11,Cl.O=C(COc1ccc(Br)cc1)OCCN1CCCCC1,> 56.8 µg/mL
12,O=C(NCc1ccc(F)cc1)C1CC(=O)N(C2CCCC2)C1 (stereo not drawn),> 45.7 µg/mL
13,Cc1ccc(CNC(=O)Nc2ccc(F)cc2F)n1C,> 41.9 µg/mL
14,COc1ccc(NC(=O)CN(C)C(=O)c2ccccc2OC)cc1,> 49.3 µg/mL
15,Cc1cc(C)nc(NCc2ccc(Cl)cc2)n1.Cl,5.4 µg/mL
16,CC1CC(C)CN(C(=O)COC(=O)c2ccc3ncsc3c2)C1 (stereo not drawn),44.9 µg/mL
17,Cc1ccc(C(=O)N/C(=C\c2ccco2)C(=O)N2CCCCC2)cc1,> 50.8 µg/mL
18,N#Cc1cc2c(nc1SCC(=O)O)CCCCC2,> 39.3 µg/mL
19,CCC(C)c1ccc(NC(=S)N2CCN(c3ccccn3)CC2)cc1 (stereo not drawn),2.6 µg/mL
20,Cc1cnc(C(=O)OCC(=O)C23CC4CC(CC(C4)C2)C3)cn1,> 47.2 µg/mL
21,O=C(CSc1nc2ncc(Cl)cc2[nH]1)N1CCC(Cc2ccccc2)CC1,1 µg/mL
22,CC(C)(C)c1cc(/C=C2\NC(=O)NC2=O)cc(C(C)(C)C)c1O,6.6 µg/mL
